Assay results: patent publication US20010049372A1, “Antiviral nucleoside analogues” (BioChem Pharma Inc., priority 1998, published 2001)
Read-outs that look alike come from different tables or passages of the source.

How the values were obtained:
HIV-1IIIB = assay: Anti-HIV-1 antiviral assay with HIV-1IIIB in various cell types (RT activity); format: cell-based
Procedure: (§1) ANTIVIRAL ASSAYS. The anti-HIV-1 activity of the compound A (−) were assessed by employing HIV-1IIIB in a variety of cell types as previously described (Gu et al., 1992, 1994, 1999; Rando et al., 1995; Salomon et al., 1994). Briefly, cells were incubated with virus at a multiplicity of infection (MOI) of 0.005 for T cell assays and an MOI of 0.5 for monocytic cell assays for 3 hrs. Unbound virus was then removed by washing the cells, followed by seeding the cells into a 96-well plate. The infected cells were cultured in the presence of a serial concentrations of the test compound for 5-7 days. The anti-HIV-1 efficacy was determined by testing for HIV-1 RT activity or p24 level in the cell culture supernatants. All assays were performed in duplicate. Zidovudine and/or lamivudine were used as controls in each experiment.
Activity of the compound A (−) against HIV-1 in various cells. Anti-HIV-1 activity of the compound A (−) were tested in different types of cells, including human peripheral […] cells (PBMCs), T-cell (MT-2 and MT-4) and monocytic cell (U937) lines. The compound A (−) had submicromolar EC50s against HIV-1IIIB in different types of cells tested (Table 2).

105/A (wt) = assay: Drug-resistant clinical isolates in PBMCs (p24); format: cell-based, HIV-1; details: Human immunodeficiency virus 1, PBMC
Procedure: as §1
(§2) Clinical strains were isolated from PBMCs of HIV-1 infected individuals through co-culture with PBMCs from normal dornors. To determine the RT genotype of the HIV-1 clinical isolates, the proviral DNA was extracted from infected CD4^+ T-cells or PBMCs and the complete RT coding regions were amplified by PCR as previously reported (Gu et al 1992). The PCR product was purified and then directly sequenced using primer RTS (5′-CCAAAAGTTAAACAATGGC-3′) which is located at the 5′ portion of the RT coding region (nucleotide 2603-2621 of HXB2-D coordinates). Antiviral activity was evaluated as described in example 10.

105/F (zidovudine^R) = assay: Drug-resistant clinical isolates in PBMCs (p24); format: cell-based, HIV-1; details: Human immunodeficiency virus 1, PBMC
Procedure: as §1, §2

CCR15 (Lamivudine^R) = assay: Drug-resistant clinical isolates in PBMCs (p24); format: cell-based, HIV-1; details: Human immunodeficiency virus 1, PBMC
Procedure: as §1, §2

CCR18 (Lamivudine^R) = assay: Drug-resistant clinical isolates in PBMCs (p24); format: cell-based, HIV-1; details: Human immunodeficiency virus 1, PBMC
Procedure: as §1, §2

CCR19 (Lamivudine^R) = assay: Drug-resistant clinical isolates in PBMCs (p24); format: cell-based, HIV-1; details: Human immunodeficiency virus 1, PBMC
Procedure: as §1, §2

HXB2-D (wt) = assay: Recombinant HIV-1 variants (RT activity); format: cell-based; details: Human immunodeficiency virus 1, HXB2
Procedure: as §1
(§3) Recombinant HIV-1 variants were prepared by introducing the designed mutations into HXB2-D by site-directed mutagenesis as described (Gu et al. 1992, 1994). The virus stocks were prepared by transfecting MT-4 cells with infectious viral DNA constructs. Antiviral activity of the compound A (−) was evaluated as described in example 10.

PI^R = assay: Recombinant drug resistant HIV-1 variants (RT activity); format: cell-based; details: Human immunodeficiency virus 1
Procedure: as §1, §3

[1] = Cellular toxicity by WST-1 staining; format: cell-based; details: human, CBMCs, Table 4, day 7, read-out: CC50 (μM) WST-1 CBMC
Procedure: (§4) The cellular toxicity of the compounds were assessed on various cells using [^3H]-thymidine uptake. Various cells, including Molt-4, HT1080, DU-145, HepG-2 and HSF, were plated at a concentration of 1-2×10^3 cells per well (96 well plates). After a 24 hr incubation period, 10-fold serial diluted compounds (b 10^−4 M to 10^−10 M) were added to the culture medium and the cells were further incubated for 72 hrs. [^3H]-thymidine was added during the final 18 hr incubation period. After incubation with the [^3H]-thymidine, the cells were washed once with PBS, treated with trypsin if the cells were adherent, and then resuspended in water (hypotonic lysing of cells). The cellular extract was applied directly to a Tomtec Harvester 96. Using this instrument the extracted DNA is adsorbed onto filters, washed and the incorporated [^3H]-thymidine is then counted. The 50% cytotoxic concentration (CC50) was determined by comparing the radioactive counts per minute of the samples in the presence of the compounds against the control. The cellular toxicity of the compounds was also tested by WST-1 staining through assessing proliferation of MT-2, H9, Jurkat, U937, and CBMCs. The established cell lines were cultured in RPMI medium in 96-well plates at a density of 5×10^4 cells/well while CBMCs were plated at a concentration of 0.5×10^6/well. A 10-fold serial diluted (10^−4-10^−7 M) compound was added at day zero. At day 4, the cells were passaged by changing half medium containing appropriately diluted compound. The cell activities were assessed at day 7 using the WST-1 reagent (Boehringer Mannheim) following the protocol provided by the supplier.
In the WST-1 staining experiments, cell lines were cultured in RPMI medium in 96-well plates at a density of 5×10^4 cells/well. CBMCs were plated at a concentration of 0.5×10^6/well. Compounds (10^−4-10^−7 M) were added at day zero. Cell viability was assessed on day 7 using the WST-1 reagent (Boehringer Mannheim) following the protocol provided by the supplier.

[2] = Cellular toxicity by [3H]-thymidine uptake; format: cell-based, human; details: human, Table 14, PHA-stimulated PBMCs, read-out: CC50 (μM) [^3H]TTP incorporation in: PBMC
Procedure: (§5) Cellular toxicity was assessed by [^3H]thymidine uptake (de Muys et al. 1999) and WST-1 staining. In the [^3H]thymidine uptake experiments, Molt-4, HT1080, DU-145, HepG2 and HSF, were plated at a concentration of 1-2×10^3 cells per well (96 well plates). PHA-stimulated PBMCs were cultured at a concentration of 4×10^4 cells per well. Following a 24 hr pre-incubation period, test compounds (10^−4 M to 10^−10 M) were added and the cells were incubated for an additional 72 hrs. [^3H]thymidine was added during the final 18 hr incubation period. The cells were then washed once with PBS, treated with trypsin if the cells were adherent, and resuspended in water (hypotonic lysing of cells). The cellular extract was applied directly to a Tomtec Harvester 96. The 50% cytotoxic concentration (CC50) was determined by comparing the radioactive counts per minute obtained from drug-tested samples to those obtained from the control (untreated) cells.

PBMCs = assay: Cellular toxicity by [3H]-thymidine uptake; format: cell-based, human; details: Table 4; 72 hrs
Procedure: as §5

[3] = Cellular toxicity by [3H]-thymidine uptake; format: cell-based; details: human
Procedure: as §4, §5

NNRTI^R = assay: Recombinant drug resistant HIV-1 variants (RT activity); format: cell-based; details: Human immunodeficiency virus 1
Procedure: as §1, §3

[4] = Human immunodeficiency virus 1, MT2, HIV-1IIIB, MT-2 cells, determined by RT activity, read-out: EC50 (μM) ± S.D. in MT-2 cells

| SMILES | EC50 (HIV-1IIIB; [4]) [µM] | IC50 (105/A (wt)) [µM] | IC50 (105/F (zidovudine^R)) [µM] | IC50 (CCR15 (Lamivudine^R)) [µM] | IC50 (CCR18 (Lamivudine^R)) [µM] | IC50 (CCR19 (Lamivudine^R)) [µM] | other results |
| --- | --- | --- | --- | --- | --- | --- | --- |
| Nc1nc(NC2CC2)c2ncn([C@H]3C=C[C@@H](CO)C3)c2n1 [Abacavir, abacavir] | 0.1 | < 0.03 | 0.07 | 0.22 | 1.3 | 0.58 | – |
| Cc1cn([C@H]2C=C[C@@H](CO)O2)c(=O)[nH]c1=O [Stavudine, stavudine] | – | 0.063 | 0.12 | 0.06 | 0.049 | 0.05 | EC50 (HIV-1IIIB; Human immunodeficiency virus 1, MT2, read-out: EC50 (μM) ± S.D. in MT-2 cells): 0.38 ± 0.26 µM |
| CC(C)(C)NC(=O)[C@@H]1C[C@@H]2CCCC[C@@H]2CN1C[C@@H](O)[C@H](Cc1ccccc1)NC(=O)[C@H](CC(N)=O)NC(=O)c1ccc2ccccc2n1 [saquinavir] | – | – | – | – | – | – | EC50 (HXB2-D (wt)): 0.0015 µM; EC50 (PI^R): 0.028 µM |
| Nc1ccn([C@H]2CC[C@@H](CO)O2)c(=O)n1 [Zalcitabine, zalcitabine] | 0.05 | – | – | – | – | – | CC50 at 7 days [1]: 29 µM; CC50 at 72 h [2]: 35.5 µM; CC50 (μM) [^3H-]TTP incorporation in: PBMC (PBMCs): 50/15; CC50 at 72 h ([3]; DU-145 cells, Table 4, read-out: CC50 (μM) [^3H-]TTP incorporation in: U-145): 5 µM; CC50 at 72 h ([3]; DU-145 cells, Table 14, read-out: CC50 (μM) [^3H]TTP incorporation in: U145): 3.5 µM; CC50 at 72 h ([3]; HSF cells, Table 14, read-out: CC50 (μM) [^3H]TTP incorporation in: HSF): 2 µM; CC50 at 72 h ([3]; HT1080 cells, Table 4, read-out: CC50 (μM) [^3H-]TTP incorporation in: HT1080): 2 µM; CC50 at 72 h ([3]; HT1080 cells, Table 14, read-out: CC50 (μM) [^3H]TTP incorporation in: HT800): 2.5 µM; CC50 at 72 h ([3]; HepG2 cells, Table 4, read-out: CC50 (μM) [^3H-]TTP incorporation in: HepG2): 7 µM; CC50 at 72 h ([3]; HepG2 cells, Table 14, read-out: CC50 (μM) [^3H]TTP incorporation in: HepG2): 6.5 µM; CC50 at 72 h ([3]; Molt-4 cells, Table 4, read-out: CC50 (μM) [^3H-]TTP incorporation in: Molt-4): 2 µM; CC50 at 72 h ([3]; Molt-4 cells, Table 14, read-out: CC50 (μM) [^3H]TTP incorporation in: Molt4): 1 µM |
| Nc1ncnc2c1ncn2CCOCP(=O)(O)O [Adefovir, adefovir] | – | 2 | 7 | 0.8 | 2.1 | 2.3 | – |
| Cc1ccnc2c1NC(=O)c1cccnc1N2C1CC1 [nevirapine] | – | – | – | – | – | – | EC50 (NNRTI^R): > 10 µM |
